Patent US20260137703A1, “2-AMINO-PYRIDO[2,3-D]PYRIMIDIN-7(8H)-ONE AND 7-AMINO-1-PYRIMIDO[4,5-D]PYRIMIDIN-2(1 H)-ONE DERIVATIVES AS EGFR INHIBITORS FOR THE TREATMENT OF CANCER” (Cancer Research Technology Limited, priority 2022, published 2026)
Where a name gives a salt, the structure may show the parent alone.

Experiments:
[1] = target: T1, Phospho-EGFR (Tyr1068) in H1975 C797S cells (CRISPR-edited EGFR C797S) (Homo sapiens, UniProt P00533, C797S/L858R/T790M); experiment: HTRF pEGFR/total EGFR in H1975 C797S cells; type: cell-based; settings: ratio pEGFR/total EGFR, compound 3 hours
T1 construct: host or cells: H1975 C797S (CRISPR-edited)
How it was run: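 Readout is the HTRF-measured Tyr1068 phospho-EGFR to total EGFR ratio, normalised to the 0 μM control as percent. Preceding this, CRISPR-edited H1975 C797S cells, plated 24 h earlier, were exposed 3 h to duplicate compound doses in medium with 0.1% DMSO, then lysed on a shaker.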

[2] = target: CtermHisTag-mEGFR Wild type (Homo sapiens, UniProt P00533); experiment: biochemical
[3] = target: T2, Phospho-EGFR (Tyr1068) in H1975 cells (Homo sapiens, UniProt P00533, L858R/T790M); experiment: HTRF pEGFR/total EGFR in H1975 cells; type: cell-based; settings: ratio pEGFR/total EGFR, compound 3 hours
T2 construct: host or cells: H1975
How it was run: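 Readout is the phospho-EGFR (Tyr1068) to total EGFR HTRF ratio, expressed relative to 0 μM control. Adhered H1975 cells were exposed to compound for 3 hours at 0.1% DMSO, duplicate wells, then lysed for 30 min at room temperature before two-wavelength fluorescence reading.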

[4] = target: T3, Phospho-EGFR (Tyr1068) in A431 cells (Homo sapiens, UniProt P00533); experiment: HTRF pEGFR/total EGFR in A431 cells with EGF stimulation; type: cell-based; settings: ratio pEGFR/total EGFR, compound 2.5 hours then 100 ng/ml EGF 30 mins
T3 construct: endogenous in cells; host or cells: A431
Description: Cells were plated at 20,000 cells per well in 96 well plates and placed at 37° C. 5% CO2. Once adhered (after 24 h) cells were treated with compounds dissolved in DMSO at a final concentration of 0.1% DMSO in media. Compounds were diluted in media then added to cells for 2.5 hours in duplicate, 100 ng/ml EGF (ThermoFisher, PHG0311) was added to all compound treated cells as well as a control for 30 mins. Compound and media were removed from the cells, then 50 ul of HTRF lysis buffer was added (lysis buffer was diluted from 4× stock to 1× in DI water, with 1% blocking agent also added). Cells were lysed on a plate shaker (2000 rpm) for 30 minutes at room temperature. pEGFR expression was monitored using the Cisbio Phospho-EGFR (Tyr1068) cellular kit (64EG1PEH). Total EGFR expression was monitored using the Cisbio Total EGFR cellular kit (64NG1PEH) as per manufacturer's instructions. Fluorescence emission was read at two different wavelengths (665 nm and 620 nm) on a PheraStar. Results were calculated as ratio of pEGFR/total EGFR and then percentage of 0 μM control.

T2 sequence (P00533 25-1210 T790M/L858R): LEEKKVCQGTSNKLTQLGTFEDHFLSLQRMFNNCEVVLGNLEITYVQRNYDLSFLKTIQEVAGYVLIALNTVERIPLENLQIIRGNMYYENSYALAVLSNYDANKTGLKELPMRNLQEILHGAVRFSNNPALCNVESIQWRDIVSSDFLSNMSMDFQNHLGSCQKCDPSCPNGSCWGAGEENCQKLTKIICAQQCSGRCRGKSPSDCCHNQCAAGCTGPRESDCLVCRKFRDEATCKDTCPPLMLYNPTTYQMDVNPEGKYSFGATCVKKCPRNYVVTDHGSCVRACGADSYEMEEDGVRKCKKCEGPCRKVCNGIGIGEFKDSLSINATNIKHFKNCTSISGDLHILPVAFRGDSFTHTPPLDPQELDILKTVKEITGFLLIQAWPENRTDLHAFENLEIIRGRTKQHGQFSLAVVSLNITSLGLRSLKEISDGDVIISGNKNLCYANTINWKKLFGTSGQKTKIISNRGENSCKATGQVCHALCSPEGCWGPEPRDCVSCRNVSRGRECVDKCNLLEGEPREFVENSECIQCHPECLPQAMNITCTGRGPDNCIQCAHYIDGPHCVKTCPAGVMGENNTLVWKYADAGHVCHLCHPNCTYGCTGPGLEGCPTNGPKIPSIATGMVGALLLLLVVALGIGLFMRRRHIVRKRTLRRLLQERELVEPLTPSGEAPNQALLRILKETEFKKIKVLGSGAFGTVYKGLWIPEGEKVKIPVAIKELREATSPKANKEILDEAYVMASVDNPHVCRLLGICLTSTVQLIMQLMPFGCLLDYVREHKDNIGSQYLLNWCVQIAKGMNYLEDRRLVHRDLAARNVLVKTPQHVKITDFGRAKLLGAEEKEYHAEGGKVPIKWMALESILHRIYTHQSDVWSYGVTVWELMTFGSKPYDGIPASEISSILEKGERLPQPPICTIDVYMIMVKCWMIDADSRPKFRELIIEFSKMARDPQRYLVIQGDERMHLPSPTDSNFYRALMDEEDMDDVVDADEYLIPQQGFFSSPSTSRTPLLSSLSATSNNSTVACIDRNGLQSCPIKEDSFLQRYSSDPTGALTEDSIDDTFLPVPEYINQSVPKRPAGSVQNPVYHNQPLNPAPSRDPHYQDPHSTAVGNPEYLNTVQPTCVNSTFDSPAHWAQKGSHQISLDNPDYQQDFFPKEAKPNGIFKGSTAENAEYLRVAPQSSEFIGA
T1 sequence (P00533 25-1210 T790M/C797S/L858R): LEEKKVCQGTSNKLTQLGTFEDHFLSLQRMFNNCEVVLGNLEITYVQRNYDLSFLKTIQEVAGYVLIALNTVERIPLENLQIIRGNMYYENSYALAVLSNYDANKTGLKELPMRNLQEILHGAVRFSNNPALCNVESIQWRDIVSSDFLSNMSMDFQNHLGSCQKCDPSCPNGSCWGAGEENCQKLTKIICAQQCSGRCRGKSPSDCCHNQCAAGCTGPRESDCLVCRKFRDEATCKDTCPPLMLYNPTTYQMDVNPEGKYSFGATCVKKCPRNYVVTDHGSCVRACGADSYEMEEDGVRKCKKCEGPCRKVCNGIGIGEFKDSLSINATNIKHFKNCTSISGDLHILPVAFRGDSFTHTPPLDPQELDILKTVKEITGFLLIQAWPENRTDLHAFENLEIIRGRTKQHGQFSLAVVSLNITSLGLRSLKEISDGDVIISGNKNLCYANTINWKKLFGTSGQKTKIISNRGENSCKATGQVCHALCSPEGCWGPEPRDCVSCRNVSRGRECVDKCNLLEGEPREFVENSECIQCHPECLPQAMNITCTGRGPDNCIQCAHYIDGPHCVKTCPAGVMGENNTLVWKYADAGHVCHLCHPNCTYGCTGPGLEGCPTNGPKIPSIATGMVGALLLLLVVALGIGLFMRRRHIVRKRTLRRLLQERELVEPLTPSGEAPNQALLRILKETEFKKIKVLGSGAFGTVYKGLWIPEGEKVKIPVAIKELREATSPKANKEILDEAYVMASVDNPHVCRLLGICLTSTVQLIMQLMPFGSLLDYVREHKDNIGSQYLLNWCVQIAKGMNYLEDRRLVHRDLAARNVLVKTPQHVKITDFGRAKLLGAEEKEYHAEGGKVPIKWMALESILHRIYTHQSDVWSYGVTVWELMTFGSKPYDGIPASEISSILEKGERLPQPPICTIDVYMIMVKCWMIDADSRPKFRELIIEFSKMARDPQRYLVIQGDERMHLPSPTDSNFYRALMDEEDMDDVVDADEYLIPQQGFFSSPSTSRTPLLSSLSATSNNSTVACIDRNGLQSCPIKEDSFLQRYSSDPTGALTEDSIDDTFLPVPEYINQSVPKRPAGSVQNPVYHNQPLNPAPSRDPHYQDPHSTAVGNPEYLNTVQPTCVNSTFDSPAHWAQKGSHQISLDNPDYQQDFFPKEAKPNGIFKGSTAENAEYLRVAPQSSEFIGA
Chain of CtermHisTag-mEGFR Wild type (P00533 whole entry): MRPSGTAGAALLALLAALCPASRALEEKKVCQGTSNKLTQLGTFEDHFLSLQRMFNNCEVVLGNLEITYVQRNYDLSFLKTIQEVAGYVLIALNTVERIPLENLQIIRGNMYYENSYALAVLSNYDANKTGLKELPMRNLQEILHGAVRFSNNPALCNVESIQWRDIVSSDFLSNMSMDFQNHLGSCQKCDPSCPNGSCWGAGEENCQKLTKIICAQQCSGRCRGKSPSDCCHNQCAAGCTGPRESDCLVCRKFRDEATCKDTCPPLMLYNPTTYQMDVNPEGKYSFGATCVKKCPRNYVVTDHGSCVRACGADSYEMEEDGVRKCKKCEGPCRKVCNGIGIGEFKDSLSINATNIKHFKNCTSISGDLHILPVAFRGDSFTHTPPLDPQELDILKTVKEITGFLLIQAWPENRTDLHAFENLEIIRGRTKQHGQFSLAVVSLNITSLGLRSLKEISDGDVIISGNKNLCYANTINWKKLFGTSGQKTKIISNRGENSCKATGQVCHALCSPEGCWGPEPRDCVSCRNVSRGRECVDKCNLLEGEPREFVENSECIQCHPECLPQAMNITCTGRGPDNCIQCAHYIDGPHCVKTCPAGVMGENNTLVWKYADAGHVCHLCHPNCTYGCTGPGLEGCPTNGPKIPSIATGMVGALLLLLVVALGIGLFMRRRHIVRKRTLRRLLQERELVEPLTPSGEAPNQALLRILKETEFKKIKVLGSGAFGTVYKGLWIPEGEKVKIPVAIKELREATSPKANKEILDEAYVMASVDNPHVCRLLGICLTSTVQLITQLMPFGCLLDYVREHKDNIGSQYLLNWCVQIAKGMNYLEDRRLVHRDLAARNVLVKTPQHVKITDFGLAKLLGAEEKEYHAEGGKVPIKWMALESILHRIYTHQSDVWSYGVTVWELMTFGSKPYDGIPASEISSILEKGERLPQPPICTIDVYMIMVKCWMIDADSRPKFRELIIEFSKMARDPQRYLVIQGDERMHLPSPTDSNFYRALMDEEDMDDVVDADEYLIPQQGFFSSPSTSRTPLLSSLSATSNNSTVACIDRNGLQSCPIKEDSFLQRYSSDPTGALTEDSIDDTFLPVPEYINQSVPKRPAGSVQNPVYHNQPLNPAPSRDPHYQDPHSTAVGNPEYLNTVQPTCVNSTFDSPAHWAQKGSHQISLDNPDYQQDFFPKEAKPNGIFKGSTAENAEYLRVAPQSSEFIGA
T3 sequence (P00533 25-1210): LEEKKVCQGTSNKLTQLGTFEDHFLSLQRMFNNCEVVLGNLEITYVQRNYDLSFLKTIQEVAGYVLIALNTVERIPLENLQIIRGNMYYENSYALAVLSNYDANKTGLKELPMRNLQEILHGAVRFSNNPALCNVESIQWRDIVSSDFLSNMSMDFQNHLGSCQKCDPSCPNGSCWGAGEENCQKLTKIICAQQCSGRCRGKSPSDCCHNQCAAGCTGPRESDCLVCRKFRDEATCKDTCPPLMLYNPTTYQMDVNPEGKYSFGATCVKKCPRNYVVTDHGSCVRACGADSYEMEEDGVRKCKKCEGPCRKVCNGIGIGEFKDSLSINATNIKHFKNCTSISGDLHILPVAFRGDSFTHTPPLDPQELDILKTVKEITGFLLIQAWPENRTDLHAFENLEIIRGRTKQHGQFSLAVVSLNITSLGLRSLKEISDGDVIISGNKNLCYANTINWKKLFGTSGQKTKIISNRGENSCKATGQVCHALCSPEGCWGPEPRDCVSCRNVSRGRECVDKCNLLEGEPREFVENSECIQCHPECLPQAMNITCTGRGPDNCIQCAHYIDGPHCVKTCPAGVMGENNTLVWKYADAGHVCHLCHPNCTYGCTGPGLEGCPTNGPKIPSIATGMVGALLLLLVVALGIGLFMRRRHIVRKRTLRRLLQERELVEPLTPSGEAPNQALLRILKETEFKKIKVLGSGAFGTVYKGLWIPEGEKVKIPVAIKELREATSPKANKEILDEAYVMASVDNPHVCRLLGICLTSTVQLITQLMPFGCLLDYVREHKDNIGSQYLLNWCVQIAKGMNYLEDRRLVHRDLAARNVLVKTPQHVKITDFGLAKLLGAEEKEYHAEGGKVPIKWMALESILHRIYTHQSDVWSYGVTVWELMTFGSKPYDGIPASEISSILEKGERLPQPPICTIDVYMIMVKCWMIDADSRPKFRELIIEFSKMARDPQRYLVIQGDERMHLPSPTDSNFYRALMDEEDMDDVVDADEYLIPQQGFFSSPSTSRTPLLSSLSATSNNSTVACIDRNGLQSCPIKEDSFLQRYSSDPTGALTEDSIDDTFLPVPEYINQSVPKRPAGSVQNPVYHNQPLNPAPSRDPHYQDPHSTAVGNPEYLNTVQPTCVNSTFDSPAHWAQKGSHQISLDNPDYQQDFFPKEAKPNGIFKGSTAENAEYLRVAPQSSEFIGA

Row | Compound | IC50 [1] [µM] | IC50 [2] [µM] | IC50 [3] [µM] | IC50 [4] [µM]
1 | C#Cc1cc(=O)n(C)c2nc(Nc3cccc(N(C)C(=O)CN(C)C)c3)ncc12 [Example 53, 2-(Dimethylamino)-N-[3-({5-ethynyl-8-methyl-7-oxopyrido[2,3-d]pyrimidin-2-yl}amino)phenyl]-N-methylacetamide] | > 3 | 1 to 10 | > 3 | > 3
2 | C#Cc1cc(=O)n(-c2cccc([N+](=O)[O-])c2)c2nc(Nc3ccccc3OC)ncc12 [Example 54, 5-Ethynyl-2-((2-methoxyphenyl)amino)-8-(3-nitrophenyl)pyrido[2,3-d]pyrimidin-7(8H)-one] | > 3 | > 10 | > 3 | > 3
3 | C#Cc1cc(=O)n(-c2cccc(N)c2)c2nc(Nc3ccccc3OC)ncc12 [Example 55, 8-(3-Aminophenyl)-5-ethynyl-2-((2-methoxyphenyl)amino)pyrido[2,3-d]pyrimidin-7(8H)-one] | > 3 | 1 to 10 | 1 to 3 | > 3
4 | C#Cc1cc(=O)n(-c2cccc(NC(=O)COC(C)=O)c2)c2nc(Nc3ccccc3OC)ncc12 [Example 59, 2-((3-(5-Ethynyl-2-((2-methoxyphenyl)amino)-7-oxopyrido[2,3-d]pyrimidin-8(7H)-yl)phenyl)amino)-2-oxoethyl acetate] | > 3 | 1 to 10 | > 3 | > 3
5 | C#Cc1cc(=O)n(-c2ccc([N+](=O)[O-])cc2)c2nc(Nc3ccccc3OC)ncc12 [Example 60, 5-Ethynyl-2-((2-methoxyphenyl)amino)-8-(4-nitrophenyl)pyrido[2,3-d]pyrimidin-7(8H)-one] | > 3 | 1 to 10 | > 3 | > 3
6 | C#Cc1cc(=O)n(-c2ccc(N)cc2)c2nc(Nc3ccccc3OC)ncc12 [Example 61, 8-(4-Aminophenyl)-5-ethynyl-2-((2-methoxyphenyl)amino)pyrido[2,3-d]pyrimidin-7(8H)-one] | > 3 | < 1 | > 3 | > 3
7 | C#Cc1cc(=O)n(-c2ccc(NC(C)=O)cc2)c2nc(Nc3ccccc3OC)ncc12 [Example 62, N-(4-(5-Ethynyl-2-((2-methoxyphenyl)amino)-7-oxopyrido[2,3-d]pyrimidin-8(7H)-yl)phenyl)acetamide] | > 3 | 1 to 10 | > 3 | > 3
8 | C#Cc1cc(=O)n(-c2ccc(NS(C)(=O)=O)cc2)c2nc(Nc3ccccc3OC)ncc12 [Example 63, N-(4-(5-Ethynyl-2-((2-methoxyphenyl)amino)-7-oxopyrido[2,3-d]pyrimidin-7(8H)-yl)phenyl)methanesulfonamide] | > 3 | < 1 | > 3 | > 3
9 | C#Cc1cc(=O)n(-c2ccc(NC(=O)COC(C)=O)cc2)c2nc(Nc3ccccc3OC)ncc12 [Example 64, 2-((4-(5-Ethynyl-2-((2-methoxyphenyl)amino)-7-oxopyrido[2,3-d]pyrimidin-8(7H)-yl)phenyl)amino)-2-oxoethyl acetate] | > 3 | 1 to 10 | > 3 | > 3
10 | C#Cc1cc(=O)n(-c2ccc(NC(=O)CC)cc2)c2nc(Nc3ccccc3OC)ncc12 [Example 65, N-(4-(5-Ethynyl-2-((2-methoxyphenyl)amino)-7-oxopyrido[2,3-d]pyrimidin-7(8H)-yl)phenyl)propionamide] | > 3 | 1 to 10 | > 3 | > 3
11 | C#Cc1cc(=O)n(-c2ccc(NC(=O)C3CC3)cc2)c2nc(Nc3ccccc3OC)ncc12 [Example 66, N-(4-(5-Ethynyl-2-((2-methoxyphenyl)amino)-7-oxopyrido[2,3-d]pyrimidin-8(7H)-yl)phenyl)cyclopropanecarboxamide] | > 3 | 1 to 10 | > 3 | > 3

Other lines, results leading:

Row | IC50 [1] [µM] | IC50 [2] [µM] | IC50 [3] [µM] | IC50 [4] [µM] | Compound
12 | < 0.5 | < 1 | < 0.5 | 1 to 3 | C#Cc1cc(=O)n(CC2CCCC2)c2nc(Nc3ccc(N4CCN(C)CC4)cc3)ncc12 [Example 67, 8-(Cyclopentylmethyl)-5-ethynyl-2-((4-(4-methylpiperazin-1-yl)phenyl)amino)pyrido[2,3-d]pyrimidin-7(8H)-one]
13 | 0.5 to 1 | < 1 | < 0.5 | 1 to 3 | C#Cc1cc(=O)n(C2CCCCC2)c2nc(Nc3ccc(N4CCN(C)CC4)cc3)ncc12 [Example 68, 8-Cyclohexyl-5-ethynyl-2-((4-(4-methylpiperazin-1-yl)phenyl)amino)pyrido[2,3-d]pyrimidin-7(8H)-one]
14 | 1 to 3 | < 1 | < 0.5 | > 3 | C#Cc1cc(=O)n(C2CCOCC2)c2nc(Nc3ccc(N4CCN(C)CC4)cc3)ncc12 [Example 69, 5-Ethynyl-2-((4-(4-methylpiperazin-1-yl)phenyl)amino)-8-(tetrahydro-2H-pyran-4-yl)pyrido[2,3-d]pyrimidin-7(8H)-one]
15 | < 0.5 | < 1 | < 0.5 | > 3 | C#Cc1cc(=O)n(CC2CCOC2)c2nc(Nc3ccc(N4CCN(C)CC4)cc3)ncc12 (centres unmarked) [Example 70, 5-Ethynyl-2-((4-(4-methylpiperazin-1-yl)phenyl)amino)-8-((tetrahydrofuran-3-yl)methyl)pyrido[2,3-d]pyrimidin-7(8H)-one]
16 | > 3 | > 10 | > 3 | > 3 | C#Cc1cc(=O)n(C[C@@H]2CCC(=O)N2)c2nc(Nc3ccc(N4CCN(C)CC4)cc3)ncc12 [Example 71, (S)-5-Ethynyl-2-((4-(4-methylpiperazin-1-yl)phenyl)amino)-8-((5-oxopyrrolidin-2-yl)methyl)pyrido[2,3-d]pyrimidin-7(8H)-one]
17 | < 0.5 | < 1 | 0.5 to 1 | > 3 | C#Cc1cc(=O)n(CC2CCCO2)c2nc(Nc3ccc(N4CCN(C)CC4)cc3)ncc12 (centres unmarked) [Example 72, 5-Ethynyl-2-((4-(4-methylpiperazin-1-yl)phenyl)amino)-8-((tetrahydrofuran-2-yl)methyl)pyrido[2,3-d]pyrimidin-7(8H)-one]
18 | 1 to 3 | 1 to 10 | 0.5 to 1 | > 3 | C#Cc1cc(=O)n(C2CCCC2O)c2nc(Nc3ccc(N4CCN(C)CC4)cc3)ncc12 (centres unmarked) [Example 73, 5-Ethynyl-8-(2-hydroxycyclopentyl)-2-((4-(4-methylpiperazin-1-yl)phenyl)amino)pyrido[2,3-d]pyrimidin-7(8H)-one]
19 | 0.5 to 1 | < 1 | < 0.5 | > 3 | C#Cc1cc(=O)n(C(C)C)c2nc(Nc3ccc(N4CCN(C)CC4)cc3)ncc12 [Example 76, 5-Ethynyl-8-isopropyl-2-{[4-(4-methylpiperazin-1-yl)phenyl]amino}pyrido[2,3-d]pyrimidin-7-one]
20 | > 3 | > 10 | > 3 | > 3 | C#Cc1cc(=O)n([C@@H]2CCCN(C(=O)CC)C2)c2nc(Nc3ccc(N(C)CCN(C)C)cc3)ncc12 [Example 77, (R)-2-((4-((2-(Dimethylamino)ethyl)(methyl)amino)phenyl)amino)-5-ethynyl-8-(1-propionylpiperidin-3-yl)pyrido[2,3-d]pyrimidin-7(8H)-one trifluoroacetic acid salt]
